# Laboratory results taken from publication PMC7719179, “Small molecule inhibition of Dynamin-dependent endocytosis targets multiple niche signals and impairs leukemia stem cells” (Nature Communications, 2020).
# Where “and” joins values, the source holds several entries; their conditions need not be identical. Equal entries are not always repeated.
# Key:
# [1] = system: Notch1 and Hes1 in Lmo2-transgenic DN3a thymocytes; assay: Surface Notch1 and intracellular Hes1 in Lmo2^Tg DN3a thymocytes on OP9-DL1; format: cell-based, mouse; settings: Lmo2-transgenic DN3a thymocytes on OP9-DL1 overnight, 0.2 μM Dynole 34-2
# Description: Phosphoflow analysis was performed as previously described. Briefly, 2 × 10^6 cells stained for surface markers were subsequently resuspended into PBS 1× + 4% v/v paraformaldehyde and incubated for 10 min at 4 °C for fixation. Fixed cells were washed twice using PBS 1×, then resuspended in pre-chilled at −20 °C Perm Buffer III (BD Pharmingen) and incubated 30 min at 4 °C for permeabilization. Cells were washed twice using PBS 1× and incubated overnight at 4 °C in PBS 1× + 2% v/v fetal calf serum (FCS) with Cell Signalling purified antibodies (Genesearch Pty Ltd, Arundel QLD, Australia) against pSTAT5 (Tyr694; #9359), phospho-p38 MAPK (Thr180/Tyr182; #4511), phospho-p44/42 (Erk1/2; #9102), phospho-S6 (Ser235/236; #4856) and phospho-Akt (Ser473; #9271) or isotype control. […] Fluorescence-activated cell sorting (FACS) analysis was performed using LSRII and LSR Fortessa cytometers, following the gating strategies described in Supplementary Fig. 11. […]
# For in vitro NOTCH1 signalling activation assays, cells were seeded on OP9 and OP9-DL1 stromal cell lines as described in the co-culture assays section and incubated overnight with either Dynole 34-2 or Ruxolitinib or DAPT resuspended in DMSO. […] Cells were washed twice, fixed and analysed for intracellular HES1 detection by flow cytometry as described in the FACS analysis section. […]
# [2] = system: DN3a T-cell progenitors of Lmo2^Tg mice; assay: Thymocyte populations (DN3a, DN1-DN4) in the thymus of treated Lmo2^Tg mice; format: in vivo, mouse
# Description: The synthesis of Dynole 34-2 and Dyngo 4a compounds was performed as previously described[32],[33] and was kindly provided by A. McCluskey. For in vitro assays, the specific Dynamin inhibitors Dynole 34-2, Dyngo 4a and Dynasore (#S8047, Selleckchem, Sapphire Bioscience Pty Ltd, Redfern NSW, Australia) were made as stock solutions in 100% dimethyl sulfoxide (DMSO), which were stored frozen. These compounds were diluted in 50% v/v DMSO/20 mM Tris-HCl pH 7.4 immediately prior to use. For in vivo administration, Dynole 34-2 was resuspended in pre-warmed HRC#5 (Pharmatek, San Diego CA, USA) 1 : 9 phosphate-buffered saline (PBS) 1× pH 7.4 at 37 °C, and sonicated 10 times for 30 s using a Bioruptor Plus (Biogenode) immediately prior to injection at 30 mg/kg, twice daily.
# Flow cytometry analyses were performed as previously described[10],[86] on single-cell suspensions stained using BD Pharmingen antibodies (BD Australia, North Ryde NSW, Australia) against mouse CD4 (RM4-5), CD8 (53-6.7), CD25 (PC61.5), CD44 (IM7), CD45.1 (A20), CD45.2 (104), Thy1.2 (53-2.1; #561616), TCRβ (H57-597), CD117 (ACK45), CD135 (A2F10.1), CD150 (TC15-12F12.2; #562373), B220 (RA3-6B2; #563708), CD3 (145-2C11; #563004), CD19 (ID3; #557655), Gr-1 (RB6-8C5; #563299 and #565033), CD11b (M1/70; #563015 and #560455), Ter119 (Ter119; #565523 and #557909), Sca-1 (D7; #558160) and an eBioscience antibody (eBioscience, Invitrogen) against mouse NOTCH1 (22E5). DN3 populations and IL-7R were stained using BioLegend antibodies (Australian Biosearch, Balcatta WA, Australia) against mouse CD28 (E18) and CD127 (A7R34), respectively. Apoptosis was measured using an antibody against AnnexinV (#556420, BD Australia) and the […] Sytox Blue (BD Australia) following the manufacturer’s protocol.
# All experiments were pre-approved by the AMREP Animal Ethics Committee. The current study was performed by using the previously described CD2-Lmo2 (Lmo2^Tg) mouse model. Mice cohorts were generated by cross-breeding with the Lck-Notch1-IC9 (N1-ICD^Tg)[45] generously given by T. Hoang[86], the Lck-STAT5b-CA (STAT5-CA^Tg)[88] kindly given by M.P. McCormack, the Mx1-Cre transgenic (Mx)[89] and the ROSA26-YFP Cre-reporter (YFP)[90] mouse strains. All mouse lines were backcrossed onto a C57BL/6J background for ten generations and maintained in pathogen-free conditions according to institutional animal care guidelines.
# [3] = thymus of treated Lmo2^Tg mice, absolute numbers vs vehicle (response to reviewers)
# [4] = thymus of treated Lmo2^Tg mice, individual mice
compound,measurement,setting,value
"CCCCCCCCNC(=O)C(C#N)=Cc1cn(CCCN(C)C)c2ccccc12 [Dynole 34-2, 2-Cyano-N-octyl-3-(1-(3-dimethylaminopropyl)-1H-indol-3-yl)-acrylamide]",Hes1 (MFI),[1],18345 MFI and 12543 MFI and 14751 MFI and 12961 MFI
same,Notch1 (MFI),[1],16352 MFI and 11570 MFI and 16901 MFI and 11730 MFI
same,reduction in the numbers of DN3a thymocytes,"[2]; Lmo2^Tg mice at end of treatment, vs vehicle, in words",tenfold reduction
same,Absolute numbers DN3a cells,"[2]; thymus of 6-week-old Lmo2^Tg mice after two rounds of treatment, individual animals (Fig 4a)",1380000 and 2260000 and 730000 and 1690000 and 1100000
same,Absolute numbers DN3a cells,"[2]; thymus of 6-week-old Lmo2^Tg mice, 30 mg/kg i.p. twice daily, 5 days on 2 consecutive weeks, individual animals (Fig 3a), 30 mg/kg",197000 and 290000 and 173000 and 171000 and 222000 and 359000
same,"decrease in DN3a thymocytes when combined with VXL, as compared to VXL alone",[2]; thymus of treated Lmo2^Tg mice (response to reviewers),75%
same,decrease in DN1 cells,[2]; [3],56%
same,decrease in DN2 cells,[2]; [3],45%
same,decrease in DN3a cells,[2]; [3],64%
same,increase in DN4 cells,[2]; [3],134%
same,"Proportion of DN cells (% DN), DN1",[2]; [4],1.8 % DN and 1.3 % DN and 3.9 % DN and 6.4 % DN and 2.8 % DN
same,"Proportion of DN cells (% DN), DN2",[2]; [4],1 % DN and 0.2 % DN and 0.4 % DN and 0.1 % DN and 0.5 % DN
same,"Proportion of DN cells (% DN), DN3",[2]; [4],18.3 % DN and 14.1 % DN and 34.4 % DN and 43.5 % DN and 16.6 % DN
same,"Proportion of DN cells (% DN), DN4",[2]; [4],79.5 % DN and 84.5 % DN and 61.1 % DN and 49.1 % DN and 80.5 % DN
